Measurements reported in article PMC6576746, “Rational discovery of dual-indication multi-target PDE/Kinase inhibitor for precision anti-cancer therapy using structural systems pharmacology” (PLoS Computational Biology, 2019).

Columns and labels:
Experiment in all cases: biochemical
Parameters in all cases: DiscoverX KinomeScan competition binding assay across human kinases; per cent of control at 10 and 100 uM
[1] = target: T1, MRCKB (Homo sapiens, UniProt Q9Y5S2); conditions: competition binding, % of control; read-out: Percent Control (100 uM Levosimendan)
T1 construct: gene CDC42BPB
T1 sequence (Q9Y5S2 whole entry): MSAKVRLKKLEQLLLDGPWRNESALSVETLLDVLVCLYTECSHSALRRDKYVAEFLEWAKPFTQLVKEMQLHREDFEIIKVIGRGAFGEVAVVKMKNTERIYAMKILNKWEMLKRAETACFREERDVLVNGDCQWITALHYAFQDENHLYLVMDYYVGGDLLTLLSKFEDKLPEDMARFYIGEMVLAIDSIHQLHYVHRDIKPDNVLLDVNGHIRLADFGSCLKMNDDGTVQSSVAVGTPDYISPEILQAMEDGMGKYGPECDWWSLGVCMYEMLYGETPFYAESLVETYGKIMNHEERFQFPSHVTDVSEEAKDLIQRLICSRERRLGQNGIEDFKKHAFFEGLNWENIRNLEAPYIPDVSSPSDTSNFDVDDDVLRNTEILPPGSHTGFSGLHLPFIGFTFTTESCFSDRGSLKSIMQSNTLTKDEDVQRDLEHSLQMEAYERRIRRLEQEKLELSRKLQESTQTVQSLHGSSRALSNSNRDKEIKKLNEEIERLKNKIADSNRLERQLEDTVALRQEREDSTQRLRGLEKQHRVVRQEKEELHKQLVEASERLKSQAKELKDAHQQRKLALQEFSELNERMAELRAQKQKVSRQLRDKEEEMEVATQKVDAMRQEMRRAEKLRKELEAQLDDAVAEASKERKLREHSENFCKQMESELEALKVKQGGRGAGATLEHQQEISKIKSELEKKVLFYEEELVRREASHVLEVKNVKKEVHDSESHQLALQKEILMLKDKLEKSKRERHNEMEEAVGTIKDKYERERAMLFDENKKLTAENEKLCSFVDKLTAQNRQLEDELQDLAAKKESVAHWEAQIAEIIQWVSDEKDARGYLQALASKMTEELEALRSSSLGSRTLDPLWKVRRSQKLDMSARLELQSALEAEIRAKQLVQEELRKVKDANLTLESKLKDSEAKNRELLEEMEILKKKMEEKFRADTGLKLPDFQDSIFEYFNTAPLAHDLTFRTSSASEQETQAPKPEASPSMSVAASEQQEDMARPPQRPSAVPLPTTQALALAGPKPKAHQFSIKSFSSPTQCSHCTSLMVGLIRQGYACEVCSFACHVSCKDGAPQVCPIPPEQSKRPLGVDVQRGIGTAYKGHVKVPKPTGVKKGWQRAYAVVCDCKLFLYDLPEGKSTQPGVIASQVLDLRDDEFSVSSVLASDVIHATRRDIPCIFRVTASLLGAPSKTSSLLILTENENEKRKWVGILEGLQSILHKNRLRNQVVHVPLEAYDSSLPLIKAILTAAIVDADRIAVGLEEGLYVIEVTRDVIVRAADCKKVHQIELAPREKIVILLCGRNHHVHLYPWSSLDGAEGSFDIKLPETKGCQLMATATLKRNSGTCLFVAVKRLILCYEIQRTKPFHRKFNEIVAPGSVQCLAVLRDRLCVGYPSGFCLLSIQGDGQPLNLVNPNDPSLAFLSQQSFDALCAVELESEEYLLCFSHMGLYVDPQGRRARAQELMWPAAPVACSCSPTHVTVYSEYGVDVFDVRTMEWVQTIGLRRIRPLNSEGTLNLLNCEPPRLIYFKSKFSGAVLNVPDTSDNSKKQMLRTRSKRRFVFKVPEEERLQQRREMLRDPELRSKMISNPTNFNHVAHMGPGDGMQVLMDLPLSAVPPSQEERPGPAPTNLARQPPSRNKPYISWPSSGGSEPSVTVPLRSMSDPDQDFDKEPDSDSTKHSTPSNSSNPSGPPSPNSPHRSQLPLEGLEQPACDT
How it was run: (§1)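 Binding is expressed as %control, normalised between positive and negative control signals. The compound (levosimendan) was tested at 10 μM and 100 μM in the DiscoverX KinomeScan competition binding format against human kinases.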

[2] = target: T2, RIPK5 (Homo sapiens, UniProt Q6XUX3); conditions: competition binding, % of control; read-out: Percent Control (100 uM Levosimendan)
T2 construct: gene DSTYK
How it was run: as §1

[3] = target: FRK (Homo sapiens, UniProt P42685); conditions: competition binding, % of control; read-out: Percent Control (100 uM Levosimendan)
How it was run: as §1

[4] = target: T3, ASK1 (Homo sapiens, UniProt Q99683); conditions: competition binding, % of control; read-out: Percent Control (100 uM Levosimendan)
T3 construct: gene MAP3K5
How it was run: as §1

[5] = target: T4, ADCK4 (Homo sapiens, UniProt Q96D53); conditions: competition binding, % of control; read-out: Percent Control (100 uM Levosimendan)
T4 construct: gene COQ8B
How it was run: as §1

[6] = target: TNK1 (Homo sapiens, UniProt Q13470); conditions: competition binding, % of control; read-out: Percent Control (100 uM Levosimendan)
How it was run: as §1

[7] = target: T5, ERK8 (Homo sapiens, UniProt Q8TD08); conditions: competition binding, % of control; read-out: Percent Control (100 uM Levosimendan)
T5 construct: gene MAPK15
How it was run: as §1

[8] = target: FYN (Homo sapiens, UniProt P06241); conditions: competition binding, % of control
Sequence of FYN (P06241 whole entry): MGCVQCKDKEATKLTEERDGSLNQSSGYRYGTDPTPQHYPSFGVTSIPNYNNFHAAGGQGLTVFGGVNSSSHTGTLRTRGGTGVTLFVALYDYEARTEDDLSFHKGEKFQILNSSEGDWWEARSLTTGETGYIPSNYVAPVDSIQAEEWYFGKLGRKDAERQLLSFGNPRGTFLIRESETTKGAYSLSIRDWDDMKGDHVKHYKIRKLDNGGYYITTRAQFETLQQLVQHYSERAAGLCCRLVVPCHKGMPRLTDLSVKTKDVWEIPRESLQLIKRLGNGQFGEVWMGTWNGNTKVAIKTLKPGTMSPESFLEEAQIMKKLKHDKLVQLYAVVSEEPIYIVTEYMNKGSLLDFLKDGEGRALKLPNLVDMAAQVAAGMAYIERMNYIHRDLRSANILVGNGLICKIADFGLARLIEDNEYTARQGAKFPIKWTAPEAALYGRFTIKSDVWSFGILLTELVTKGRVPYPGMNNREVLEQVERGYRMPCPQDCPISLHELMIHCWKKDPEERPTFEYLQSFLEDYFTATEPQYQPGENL
How it was run: as §1

[9] = target: BMX (Homo sapiens, UniProt P51813); conditions: competition binding, % of control; read-out: Percent Control (100 uM Levosimendan)
How it was run: as §1

[10] = target: T6, PAK7 (Homo sapiens, UniProt Q9P286); conditions: competition binding, % of control; read-out: Percent Control (100 uM Levosimendan)
T6 construct: gene PAK5
T6 sequence (Q9P286 whole entry): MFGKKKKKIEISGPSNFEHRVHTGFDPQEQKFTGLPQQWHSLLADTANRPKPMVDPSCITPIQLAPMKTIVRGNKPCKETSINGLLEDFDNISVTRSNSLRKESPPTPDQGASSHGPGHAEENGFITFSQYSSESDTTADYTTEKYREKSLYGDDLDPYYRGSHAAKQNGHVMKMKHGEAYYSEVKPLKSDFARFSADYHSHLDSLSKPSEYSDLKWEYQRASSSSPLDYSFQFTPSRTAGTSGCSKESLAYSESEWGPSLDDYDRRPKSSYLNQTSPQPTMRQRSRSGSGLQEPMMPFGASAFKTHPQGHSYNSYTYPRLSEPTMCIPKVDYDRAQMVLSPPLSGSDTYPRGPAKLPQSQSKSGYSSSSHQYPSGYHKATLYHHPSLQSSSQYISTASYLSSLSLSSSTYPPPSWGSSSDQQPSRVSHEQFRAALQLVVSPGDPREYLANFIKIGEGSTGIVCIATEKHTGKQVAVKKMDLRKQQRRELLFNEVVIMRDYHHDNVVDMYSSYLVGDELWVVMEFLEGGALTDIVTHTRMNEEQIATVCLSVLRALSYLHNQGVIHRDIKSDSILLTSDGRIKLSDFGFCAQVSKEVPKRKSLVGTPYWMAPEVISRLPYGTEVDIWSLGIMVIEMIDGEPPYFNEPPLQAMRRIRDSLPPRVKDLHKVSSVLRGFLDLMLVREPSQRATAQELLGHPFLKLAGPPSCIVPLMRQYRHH
How it was run: as §1

[11] = target: T7, JNK2 (Homo sapiens, UniProt P45984); conditions: competition binding, % of control; read-out: Percent Control (100 uM Levosimendan)
T7 construct: gene MAPK9
How it was run: as §1

[12] = target: T8, TYK2(JH2domain-pseudokinase) (Homo sapiens, UniProt P29597); conditions: competition binding, % of control
T8 construct: JH2domain-pseudokinase
T8 sequence (P29597 whole entry): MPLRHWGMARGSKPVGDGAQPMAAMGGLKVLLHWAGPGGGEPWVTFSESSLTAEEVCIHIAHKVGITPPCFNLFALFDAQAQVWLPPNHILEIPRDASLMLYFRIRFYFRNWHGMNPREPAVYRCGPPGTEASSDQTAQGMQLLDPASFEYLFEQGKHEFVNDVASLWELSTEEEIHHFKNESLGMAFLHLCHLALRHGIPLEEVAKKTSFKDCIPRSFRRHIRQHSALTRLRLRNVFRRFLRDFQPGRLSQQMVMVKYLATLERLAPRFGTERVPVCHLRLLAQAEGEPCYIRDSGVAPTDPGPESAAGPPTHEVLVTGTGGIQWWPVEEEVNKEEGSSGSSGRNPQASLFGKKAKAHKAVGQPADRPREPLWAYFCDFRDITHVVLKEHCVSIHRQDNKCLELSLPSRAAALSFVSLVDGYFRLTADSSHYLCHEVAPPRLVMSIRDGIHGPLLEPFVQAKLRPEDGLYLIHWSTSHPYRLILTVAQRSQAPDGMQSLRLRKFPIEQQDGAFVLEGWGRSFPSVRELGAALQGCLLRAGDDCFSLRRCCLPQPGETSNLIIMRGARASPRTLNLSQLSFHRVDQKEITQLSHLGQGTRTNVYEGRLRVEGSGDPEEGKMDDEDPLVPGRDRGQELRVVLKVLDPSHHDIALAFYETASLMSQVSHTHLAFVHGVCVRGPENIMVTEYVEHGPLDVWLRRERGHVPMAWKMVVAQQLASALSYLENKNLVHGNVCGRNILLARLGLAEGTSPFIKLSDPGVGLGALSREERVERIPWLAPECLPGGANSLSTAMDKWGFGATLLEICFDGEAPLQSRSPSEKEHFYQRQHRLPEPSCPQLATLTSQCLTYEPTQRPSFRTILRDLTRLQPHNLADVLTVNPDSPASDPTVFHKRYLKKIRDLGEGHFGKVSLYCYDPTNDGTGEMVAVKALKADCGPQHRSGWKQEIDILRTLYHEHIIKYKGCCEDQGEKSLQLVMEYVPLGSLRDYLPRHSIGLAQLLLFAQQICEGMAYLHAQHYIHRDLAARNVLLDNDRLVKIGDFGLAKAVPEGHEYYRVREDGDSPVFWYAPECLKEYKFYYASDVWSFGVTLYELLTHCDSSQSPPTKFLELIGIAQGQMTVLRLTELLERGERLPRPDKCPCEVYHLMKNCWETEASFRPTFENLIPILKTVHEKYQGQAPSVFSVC
How it was run: as §1

[13] = target: PIP5K1C (Homo sapiens, UniProt O60331); conditions: competition binding, % of control
Sequence of PIP5K1C (O60331 whole entry): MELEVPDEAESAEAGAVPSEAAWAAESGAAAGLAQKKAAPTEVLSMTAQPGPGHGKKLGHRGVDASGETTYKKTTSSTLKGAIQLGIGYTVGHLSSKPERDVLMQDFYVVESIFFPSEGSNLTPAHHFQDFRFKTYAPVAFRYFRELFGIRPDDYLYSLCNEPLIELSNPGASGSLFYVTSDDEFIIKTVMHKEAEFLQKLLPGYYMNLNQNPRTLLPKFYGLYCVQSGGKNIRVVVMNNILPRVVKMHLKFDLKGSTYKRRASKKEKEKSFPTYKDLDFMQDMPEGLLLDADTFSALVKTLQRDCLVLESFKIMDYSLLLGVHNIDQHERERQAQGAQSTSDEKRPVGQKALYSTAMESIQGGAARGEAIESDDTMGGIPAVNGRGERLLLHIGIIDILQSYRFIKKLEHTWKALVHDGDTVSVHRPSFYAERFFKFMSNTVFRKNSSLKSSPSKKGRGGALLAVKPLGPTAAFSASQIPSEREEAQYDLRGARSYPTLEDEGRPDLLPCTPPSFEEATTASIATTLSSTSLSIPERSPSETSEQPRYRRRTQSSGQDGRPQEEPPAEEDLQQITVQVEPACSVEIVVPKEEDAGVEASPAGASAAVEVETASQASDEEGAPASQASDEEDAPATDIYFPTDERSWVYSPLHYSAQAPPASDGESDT
How it was run: as §1

[14] = target: ULK3 (Homo sapiens, UniProt Q6PHR2); conditions: competition binding, % of control; read-out: Percent Control (100 uM Levosimendan)
How it was run: as §1

[15] = target: PAK2 (Homo sapiens, UniProt Q13177); conditions: competition binding, % of control; read-out: Percent Control (100 uM Levosimendan)
How it was run: as §1

[16] = target: T9, RSK2(Kin.Dom.2-C-terminal) (Homo sapiens, UniProt P51812); conditions: competition binding, % of control; read-out: Percent Control (100 uM Levosimendan)
T9 construct: gene RPS6KA3; Kin.Dom.2-C-terminal
How it was run: as §1

[17] = target: LRRK2(G2019S) (Homo sapiens, UniProt Q5S007, G2019S); conditions: competition binding, % of control; read-out: Percent Control (100 uM Levosimendan)
How it was run: as §1

[18] = target: T10, YANK1 (Homo sapiens, UniProt Q8WU08); conditions: competition binding, % of control; read-out: Percent Control (100 uM Levosimendan)
T10 construct: gene STK32A
How it was run: as §1

[19] = target: TGFBR2 (Homo sapiens, UniProt P37173); conditions: competition binding, % of control; read-out: Percent Control (100 uM Levosimendan)
How it was run: as §1

[20] = read-out: Percent Control (10 uM Levosimendan)
[21] = read-out: Percent Control (100 uM Levosimendan)

remaining binding at 100 µM [1]: 74%
remaining binding at 100 µM [2]: 60%
remaining binding at 100 µM [3]: 100%
remaining binding at 100 µM [4]: 100%
remaining binding at 100 µM [5]: 100%
remaining binding at 100 µM [6]: 100%
remaining binding at 10 µM [8, 20]: 96%
remaining binding at 100 µM [8, 21]: 47%
remaining binding at 100 µM [9]: 77%
remaining binding at 100 µM [10]: 79%
remaining binding at 100 µM [11]: 100%
remaining binding at 10 µM [12, 20]: 100%
remaining binding at 100 µM [12, 21]: 11%
remaining binding at 10 µM [13, 20]: 91%
remaining binding at 100 µM [13, 21]: 50%
remaining binding at 100 µM [14]: 77%
remaining binding at 100 µM [15]: 78%
remaining binding at 100 µM [16]: 66%
remaining binding at 100 µM [17]: 100%
remaining binding at 100 µM [18]: 94%
remaining binding at 100 µM [19]: 89%
Structure (SMILES): C[C@@H]1CC(=O)NN=C1c1ccc(NN=C(C#N)C#N)cc1 [levosimendan]
remaining binding at 100 µM [7]: 100%
